Data published in patent US10000476B2, “Pyridone derivative, pharmaceutical containing the same and methods of use thereof” (KAKEN PHARMACEUTICAL CO., LTD., priority 2011, dated 2018).

Assays:
Type in all cases: biochemical
[1] = molecular target: human MMP-13 (Homo sapiens (Human), UniProt P45452); test: MMP-13 inhibition test; details: read-out: MMPs IC50 MMP-13
Description: (§1) MMP inhibition tests can be carried out, for example, using a fluorescent synthetic substrate based on the methods described in Bickett et al. (D. Mark Bickett et al., Anal. Biochem., 1993, 212, 58-64) and Nagase et al. (H. Nagase et al., J. Biol. Chem., 1994, 269, 20952-20957). The method for each MMP inhibition test is shown below.
(§2) 90 μL (18 ng) of human MMP-13 (Calbiochem # CC068) or 90 μL (130 ng) of human MMP-13 (Calbiochem #444287) was mixed with 10 μL of 10 mM APMA, and activated by reacting at 37° C. for 1 hour. 10 μL of the resultant enzyme solution was diluted to 90 μL with an assay buffer A. The mixture was added to 90 μL of a 20 μM fluorescent substrate (Dnp-Pro-Cha-Gly-Cys(Me)-His-Ala-Lys(Nma)-NH2) (SEQ ID NO: 2) prepared with an assay buffer B, and reacted at 37° C. for 4 hours. Enzyme activity was then determined by measuring with a fluorescence intensity meter (Labsystems, Fluoroskan Ascent) at an excitation wavelength of 355 nm and a measurement wavelength of 460 nm.
(§3) From the enzyme activity in the presence or the absence of the test substance, the inhibition rate was determined, and the 50% inhibitiory concentration (IC50) of the test substance was calculated.

[2] = molecular target: human MMP-14 (Homo sapiens (Human), UniProt P50281); test: MMP-14 inhibition test; details: read-out: MMPs IC50 MMP-14
Description: as §1
90 μL (1.9 ng) of human MMP-14 (Calbiochem #475935) prepared with an assay buffer A was added to 90 μL of a 20 μM fluorescent substrate (Dnp-Pro-Cha-Gly-Cys(Me)-His-Ala-Lys(Nma)-NH2) (SEQ ID NO: 2) prepared with an assay buffer B, and reacted at 37° C. for 5 hours. Enzyme activity was then determined by measuring with a fluorescence intensity meter (Labsystems, Fluoroskan Ascent) at an excitation wavelength of 355 nm and a measurement wavelength of 460 nm.
as §3

[3] = molecular target: human MMP-2 (Homo sapiens (Human), UniProt P08253); test: MMP-2 inhibition test; details: read-out: MMPs IC50 MMP-2
human MMP-2, sequence (P08253 110-660): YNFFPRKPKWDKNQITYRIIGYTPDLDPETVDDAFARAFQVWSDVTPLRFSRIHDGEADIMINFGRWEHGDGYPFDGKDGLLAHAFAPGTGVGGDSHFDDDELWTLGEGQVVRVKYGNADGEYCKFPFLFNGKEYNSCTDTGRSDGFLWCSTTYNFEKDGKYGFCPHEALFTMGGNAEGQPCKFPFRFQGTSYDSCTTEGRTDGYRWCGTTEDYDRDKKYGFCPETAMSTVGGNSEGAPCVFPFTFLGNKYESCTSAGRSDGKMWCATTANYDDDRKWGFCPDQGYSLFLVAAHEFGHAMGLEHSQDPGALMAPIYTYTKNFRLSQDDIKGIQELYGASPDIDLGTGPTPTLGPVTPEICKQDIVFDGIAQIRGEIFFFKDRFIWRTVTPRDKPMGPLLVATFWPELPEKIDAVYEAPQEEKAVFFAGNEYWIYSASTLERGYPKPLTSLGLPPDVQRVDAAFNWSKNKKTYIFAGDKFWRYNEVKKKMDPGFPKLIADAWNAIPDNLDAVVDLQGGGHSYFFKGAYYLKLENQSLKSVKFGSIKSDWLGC
Description: as §1
90 μL (5 ng) of human MMP-2 (Calbiochem #444213) was mixed with 10 μL of 10 mM APMA, and activated by reacting at 37° C. for 1 hour. 10 μL of the resultant enzyme solution was diluted to 90 μL with an assay buffer A. The mixture was added to 90 μL of a 20 μM fluorescent substrate (MOCAc((7-methoxycoumarin-4-yl)acetyl)-Pro-Leu-Gly-Leu-A2pr(Dnp)-Ala-Arg-NH2, Peptide Institute Inc., #3163-v) (SEQ ID NO: 3) prepared with an assay buffer B, and reacted at 37° C. for 5 hours. Enzyme activity was then determined by measuring with a fluorescence intensity meter (Labsystems, Fluoroskan Ascent) at an excitation wavelength of 320 nm and a measurement wavelength of 405 nm.
as §3

[4] = molecular target: human MMP-9 (Homo sapiens (Human), UniProt P14780); test: MMP-9 inhibition test; details: read-out: MMPs IC50 MMP-9
human MMP-9, sequence (P14780 107-707): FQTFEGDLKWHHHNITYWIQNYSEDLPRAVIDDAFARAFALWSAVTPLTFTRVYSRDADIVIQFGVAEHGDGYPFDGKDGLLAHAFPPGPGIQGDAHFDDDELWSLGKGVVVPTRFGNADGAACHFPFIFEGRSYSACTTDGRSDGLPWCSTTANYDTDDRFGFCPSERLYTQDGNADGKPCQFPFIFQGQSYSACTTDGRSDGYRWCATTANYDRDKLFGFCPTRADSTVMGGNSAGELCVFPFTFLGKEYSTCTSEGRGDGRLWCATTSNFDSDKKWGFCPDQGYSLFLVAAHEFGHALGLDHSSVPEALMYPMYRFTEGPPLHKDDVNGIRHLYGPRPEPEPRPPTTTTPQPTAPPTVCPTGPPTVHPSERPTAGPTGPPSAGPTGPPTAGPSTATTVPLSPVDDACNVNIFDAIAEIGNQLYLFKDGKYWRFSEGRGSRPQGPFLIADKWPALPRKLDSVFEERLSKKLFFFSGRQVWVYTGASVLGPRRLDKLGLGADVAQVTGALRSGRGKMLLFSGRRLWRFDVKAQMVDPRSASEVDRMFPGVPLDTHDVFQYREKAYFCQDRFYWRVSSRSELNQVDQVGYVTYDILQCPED
Description: as §1
as §2, with “(11” for “(18”, “MMP-9” for “MMP-13”, “#444231)” for “# CC068) or 90 μL (130 ng) of human MMP-13 (Calbiochem #444287)”, “2 hours.” for “1 hour.”
as §3

[5] = molecular target: TACE (Homo sapiens (Human), UniProt P78536); test: TACE inhibition test (in vitro); details: fluorescent synthetic substrate, 37° C., 1.5 hours
TACE, sequence (P78536 215-824): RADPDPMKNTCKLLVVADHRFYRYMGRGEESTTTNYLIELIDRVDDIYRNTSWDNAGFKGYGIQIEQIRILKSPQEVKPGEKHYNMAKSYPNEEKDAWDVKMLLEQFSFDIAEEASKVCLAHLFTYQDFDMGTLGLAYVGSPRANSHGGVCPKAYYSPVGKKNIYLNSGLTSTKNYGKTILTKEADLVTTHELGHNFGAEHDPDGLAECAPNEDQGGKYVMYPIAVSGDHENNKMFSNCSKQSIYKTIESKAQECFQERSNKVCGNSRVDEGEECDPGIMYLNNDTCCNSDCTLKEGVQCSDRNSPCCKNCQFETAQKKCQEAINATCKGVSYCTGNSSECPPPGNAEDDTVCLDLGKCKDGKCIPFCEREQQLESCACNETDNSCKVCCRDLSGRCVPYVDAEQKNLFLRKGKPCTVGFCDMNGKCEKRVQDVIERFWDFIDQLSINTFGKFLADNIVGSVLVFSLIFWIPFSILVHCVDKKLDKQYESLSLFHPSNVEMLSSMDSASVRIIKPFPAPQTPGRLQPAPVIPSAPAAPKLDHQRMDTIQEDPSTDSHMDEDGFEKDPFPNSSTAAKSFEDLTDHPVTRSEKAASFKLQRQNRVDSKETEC
Summary of the method: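 Recombinant enzyme (cDNA from THP-1 cells, expressed in mammalian or insect cells) with quenched substrate Nma-Leu-Ala-Gln-Ala-Val-Arg-Ser-Ser-Lys(Dnp)-D-Arg-NH2. Incubated 1.5 h at 37 °C; fluorescence read at ex 355/em 460 nm; IC50 from inhibition rate.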

Row | IC50 [1] | IC50 [2] | IC50 [3] | IC50 [4] | IC50 [5] | Structure (SMILES)
1 | 45 µM | 31 µM | > 100 µM | > 100 µM | < 0.1 µM | Cc1cccn(CC2(c3ccccc3)NC(=O)NC2=O)c1=O (stereo not drawn) [Compound I-1, 5-[(3-methyl-2-oxopyridin-1(2H)-yl)methyl]-5-phenyl-imidazolidine-2,4-dione]
2 | > 100 µM | 11 µM | 62 µM | > 100 µM | < 0.1 µM | COc1ccc(Cl)cc1C1(Cn2cccc(C)c2=O)NC(=O)NC1=O (stereo not drawn) [Compound I-27, 5-(5-chloro-2-methoxyphenyl)-5-[(3-methyl-2-oxopyridin-1(2H)-yl)methyl]imidazolidine-2,4-dione]
3 | > 100 µM | 30 µM | > 100 µM | > 100 µM | < 0.1 µM | Cc1cccn(CC2(c3ccc(F)c(F)c3)NC(=O)NC2=O)c1=O (stereo not drawn) [Compound I-10, 5-(3,4-difluorophenyl)-5-[(3-methyl-2-oxopyridin-1(2H)-yl)methyl] imidazolidine-2,4-dione]
4 | > 100 µM | 22 µM | 31 µM | 67 µM | < 0.1 µM | Cc1cccn(CC2(c3cccc(-c4cccnc4)c3)NC(=O)NC2=O)c1=O (stereo not drawn) [Compound I-62]
5 | > 100 µM | 12 µM | 29 µM | > 100 µM | < 0.1 µM | Cc1cccn(CC2(c3ccc(Oc4ccccc4)cc3)NC(=O)NC2=O)c1=O (stereo not drawn) [Compound I-9, 5-[(3-methyl-2-oxopyridin-1(2H)-yl)methyl]-5-(4-phenoxyphenyl)imidazolidine-2,4-dione]
6 | > 100 µM | 22 µM | > 100 µM | > 100 µM | < 0.1 µM | Cc1cccn(CC2(c3ccc(Cc4ccccc4)cc3)NC(=O)NC2=O)c1=O (stereo not drawn) [Compound I-40, 5-(4-benzylphenyl)-5-[(3-methyl-2-oxopyridin-1(2H)-yl)methyl]imidazolidine-2,4-dione]
7 | > 100 µM | 23 µM | 51 µM | > 100 µM | < 0.1 µM | Cc1cccn(CC2(c3ccc(Oc4ccccc4F)cc3)NC(=O)NC2=O)c1=O (stereo not drawn) [Compound I-86]
8 | > 100 µM | 6 µM | > 10 µM | > 100 µM | < 0.1 µM | Cc1cccn(CC2(c3ccc(OCc4ccccc4)cc3)NC(=O)NC2=O)c1=O (stereo not drawn) [Compound I-64]
9 | > 100 µM | 21 µM | 69 µM | > 100 µM | < 0.1 µM | Cc1cccn(CC2(c3ccc(Cc4ccc(F)cc4)cc3)NC(=O)NC2=O)c1=O (stereo not drawn) [Compound I-41, 5-[4-(4-fluorobenzyl)phenyl]-5-[(3-methyl-2-oxopyridin-1(2H)-yl)methyl] imidazolidine-2,4-dione]
